Experimental data from the supplement of paper PMC10307832.

Experiments:
Assay in all cases: relative viability (nuclei count vs DMSO), 5 days (fraction); higher = more cells survive
MK-8033 + Foretinib = compound: Cn1cc(-c2cnc3ccc4ccc(CS(=O)(=O)NCc5ccccn5)cc4c(=O)c3c2)cn1 [MK-8033] + COc1cc2c(Oc3ccc(NC(=O)C4(C(=O)Nc5ccc(F)cc5)CC4)cc3F)ccnc2cc1OCCCN1CCOCC1 [Foretinib] (partner 0.25 µM)
In short: (§1)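 Lung cancer cell lines in 1536-well plates got either a single drug or a fixed anchor-drug dose together with five library-drug doses (not always all listed) in √10 steps, by pin tool, on the day after seeding. Nuclei were counted after 5 days, and relative viability is the treated-to-vehicle ratio of nuclei counts. Values are medians of duplicate plates.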

RU-SKI 43 + Decitabine = compound: CC[C@@H](C)CNCC(=O)N1CCC2=C([C@@H]1COC3=CC=CC(=C3)C)C=CS2 [RU-SKI 43] + Nc1ncn([C@H]2C[C@H](O)[C@@H](CO)O2)c(=O)n1 [Decitabine] (partner 2 µM)
In short: as §1

Irinotecan + Decitabine = compound: CCc1c2c(nc3ccc(OC(=O)N4CCC(N5CCCCC5)CC4)cc13)-c1cc3c(c(=O)n1C2)COC(=O)[C@]3(O)CC [Irinotecan] + Nc1ncn([C@H]2C[C@H](O)[C@@H](CO)O2)c(=O)n1 [Decitabine] (partner 2 µM)
In short: as §1

RU-SKI 43 + OSI-027 = compound: CC[C@@H](C)CNCC(=O)N1CCC2=C([C@@H]1COC3=CC=CC(=C3)C)C=CS2 [RU-SKI 43] + COc1cccc2cc(-c3nc([C@H]4CC[C@H](C(=O)O)CC4)n4ncnc(N)c34)[nH]c12 [OSI-027] (partner 0.5 µM)
In short: as §1

| Cell Line | relative viability (MK-8033 + Foretinib; first compound 0.02 µM) | relative viability (MK-8033 + Foretinib; first compound 0.06325 µM) | relative viability (MK-8033 + Foretinib; first compound 0.2 µM) | relative viability (MK-8033 + Foretinib; first compound 0.6325 µM) | relative viability (MK-8033 + Foretinib; first compound 2 µM) | relative viability (RU-SKI 43 + Decitabine; first compound 0.1 µM) | relative viability (RU-SKI 43 + Decitabine; first compound 0.3162 µM) | relative viability (RU-SKI 43 + Decitabine; first compound 1 µM) | relative viability (RU-SKI 43 + Decitabine; first compound 3.162 µM) | relative viability (RU-SKI 43 + Decitabine; first compound 10 µM) | relative viability (Irinotecan + Decitabine; first compound 0.6325 µM) | relative viability (Irinotecan + Decitabine; first compound 2 µM) | relative viability (Irinotecan + Decitabine; first compound 6.325 µM) | relative viability (Irinotecan + Decitabine; first compound 20 µM) | relative viability (RU-SKI 43 + OSI-027; first compound 0.1 µM) | relative viability (RU-SKI 43 + OSI-027; first compound 0.3162 µM) | relative viability (RU-SKI 43 + OSI-027; first compound 1 µM) | relative viability (RU-SKI 43 + OSI-027; first compound 3.162 µM) | relative viability (RU-SKI 43 + OSI-027; first compound 10 µM) |
| --- | --- | --- | --- | --- | --- | --- | --- | --- | --- | --- | --- | --- | --- | --- | --- | --- | --- | --- | --- |
| NCI-H358 | 0.801 | 0.511 | 0.72 | 0.565 | 0.643 | 0.199 | 0.184 | 0.248 | 0.217 | 0.19 | 0.183 | 0.193 | 0.154 | 0.0968 | 0.597 | 0.642 | 0.975 | 0.865 | 0.564 |
| NCI-H441 | 0.842 | 1.02 | 0.967 | 0.968 | 0.896 | 0.212 | 0.238 | 0.228 | 0.229 | 0.223 | 0.208 | 0.166 | 0.227 | 0.324 | 0.677 | 0.511 | 0.665 | 0.6 | 0.481 |
| NCI-H460 | 1.02 | 0.961 | 0.947 | 1.02 | 1.01 | 0.446 | 0.698 | 0.547 | 0.475 | 0.379 | 0.353 | 0.317 | 0.106 | 0.0426 | 0.643 | 1.24 | 1.14 | 0.913 | 0.521 |
| NCI-H520 | 0.992 | 0.777 | 0.762 | 0.844 | 0.556 | 0.502 | 0.564 | 0.568 | 0.589 | 0.501 | 0.392 | 0.396 | 0.267 | 0.195 | 0.301 | 0.303 | 0.287 | 0.251 | 0.349 |
| NCI-H596 | 0.763 | 0.733 | 0.957 | 0.477 | 0.886 | 1.08 | 1.04 | 0.91 | 1.16 | 1.07 | 1.06 | 0.842 | 0.85 | 1.49 | 0.823 | 0.729 | 0.871 | 0.764 | 0.607 |
| NCI-H647 | 1.09 | 1.15 | 1.02 | 1.17 | 1.1 | 0.383 | 0.404 | 0.393 | 0.43 | 0.353 | 0.39 | 0.238 | 0.157 | 0.159 | 0.647 | 0.864 | 0.755 | 0.918 | 0.707 |
| NCI-H650 | 1.06 | 1.08 | 1.02 | 1.02 | 1.02 | 0.281 | 0.335 |  | 0.311 | 0.312 | 0.246 | 0.213 | 0.168 | 0.091 | 0.496 | 0.467 | 0.643 | 0.494 | 0.565 |
| NCI-H661 | 1.04 | 0.995 | 0.997 | 0.919 | 0.985 | 0.483 | 0.603 | 0.588 | 0.557 | 0.465 | 0.532 | 0.546 | 0.424 | 0.168 | 0.721 | 0.808 | 0.724 | 0.694 | 0.68 |
| NCI-H727 | 0.817 |  | 0.859 | 0.685 | 1.06 |  | 0.805 | 0.882 | 0.834 | 0.972 | 0.617 | 0.751 | 0.527 | 0.602 | 0.553 | 0.642 | 0.559 | 0.565 | 0.455 |
| NCI-H838 | 1.05 | 0.993 | 0.994 | 0.89 | 0.954 | 0.416 | 0.489 | 0.469 | 0.429 | 0.444 | 0.444 | 0.47 | 0.277 | 0.18 | 0.431 | 0.264 | 0.355 | 0.417 | 0.38 |
| NCI-H1355 | 0.888 | 0.886 | 0.961 | 0.862 | 0.909 | 0.351 | 0.378 | 0.348 | 0.348 | 0.354 |  | 0.27 | 0.19 | 0.242 | 0.408 | 0.378 | 0.486 | 0.428 | 0.442 |
| NCI-H1395 | 0.989 | 0.855 | 0.939 | 0.98 | 0.994 | 0.661 | 0.858 | 0.776 | 0.714 | 0.696 |  | 0.722 | 0.522 | 0.301 | 0.717 | 0.684 | 0.747 | 0.558 | 0.6 |
| NCI-H1437 | 1.21 | 1.3 | 1.19 | 1.23 | 1.19 | 0.591 | 0.582 | 0.601 | 0.56 | 0.557 | 0.586 | 0.536 | 0.391 | 0.334 | 0.986 | 0.855 | 0.865 | 0.943 | 0.862 |
| NCI-H1650 | 1.13 | 1.04 | 1.07 | 1.08 | 0.951 | 0.315 | 0.36 | 0.338 | 0.509 | 0.34 | 0.322 | 0.296 | 0.276 | 0.207 | 0.597 | 0.584 | 0.835 | 0.618 | 0.618 |
| NCI-H1651 | 0.844 | 0.637 | 0.879 | 0.692 | 0.648 | 0.624 | 0.593 | 0.7 | 0.593 | 0.589 | 0.264 | 0.486 | 0.18 | 0.137 | 0.838 | 0.768 | 0.878 | 0.764 | 0.846 |
